From ChEMBL document CHEMBL1151208, “Cytotoxic flavonoids and alpha-pyrones from Cryptocarya obovata” (J Nat Prod, 2004)
The source made the active and inactive calls. The rule behind the calls is not given here.

Tested on: KB
Assay: Cytotoxicity against human KB cells
Format: functional, cell-based

Row | SMILES | Activity | IC50 [µM]
1 | CCOC(=O)CCC[C@@H]1C[C@H]2C[C@](/C=C/c3ccccc3)(Oc3cc4c(c(O)c32)C(=O)C[C@@H](c2ccccc2)O4)O1 | inactive | –
2 | CCOC(=O)CCC[C@@H]1C[C@H]2C[C@](/C=C/c3ccccc3)(Oc3cc4c(c(O)c32)C(=O)C[C@H](c2ccccc2)O4)O1 | inactive | –
3 | O=C1C=CC[C@H](C[C@@H]2C[C@H]3C[C@](/C=C/c4ccccc4)(Oc4c(C(=O)/C=C/c5ccccc5)c(O)cc(O)c43)O2)O1 [OBOCHALCOLACTONE] | – | 5
4 | O=C1C=C(/C=C/c2ccccc2)O[C@H](C[C@H]2CC=CC(=O)O2)C1 [OBOLACTONE] | – | 3
